Measurements: patent US11161854B2, “Indazolyl-spiro[2.2]pentane-carbonitrile derivatives as LRRK2 inhibitors, pharmaceutical compositions, and uses thereof” (Merck Sharp & Dohme Corp., priority 2017, dated 2021)

Target: GST-tagged truncated human mutant G2019S LRRK2 (Homo sapiens (Human), UniProt Q5S007, G2019S)
Assay: LRRK2 G2019S Km ATP LanthaScreen Assay
Assay type: biochemical
Conditions: 134 μM ATP (Km ATP); fluorescein-labeled LRRKtide substrate; mean IC50 values
Description: The IC50 values reported herein were measured as follows.
Biological Assay: LRRK2 Km ATP LanthaScreen™ Assay
The data presented for the Km ATP LanthaScreen™ Assay represents mean IC50 values based on several test results and may have reasonable deviations depending on the specific conditions and reagents used. Assays were performed in the presence of 134 μM ATP (Km ATP). Upon completion, the assay was stopped and phosphorylated substrate detected with a terbium (Tb)-labeled anti-pERM antibody (cat. no. PV4898). The compound dose response was prepared by diluting a 10 mM stock of compound to a maximum concentration of […] in 100% dimethylsulfoxide followed by custom fold serial dilution in dimethylsulfoxide nine times. Twenty nanoliters of each dilution was spotted via a Labcyte Echo onto a 384-well black-sided plate (Corning 3575) followed by 15 μl of a 1.25 nM enzyme solution in 1× assay buffer (50 mM Tris pH 8.5, 10 mM MgCl2, 0.01% Brij-35, 1 mM EGTA, 2 mM dithiothreitol, 0.05 mM sodium orthovanadate). Following a 15-minute incubation at room temperature, the kinase reaction was started with the addition of 5 μl of 400 nM fluorescein-labeled LRRKtide peptide substrate and 134 μM ATP solution in 1× assay buffer. The reaction was allowed to progress at ambient temperature for 90 minutes. The reaction was then stopped by the addition of 20 μl of TR-FRET Dilution Buffer (Life Technologies, Carlsbad, Calif.) containing 2 nM Tb-labeled anti-phospho LRRKtide antibody and 10 mM EDTA (Life Technologies, Carlsbad, Calif.). After an incubation of 1 hour at room temperature, the plate was read on an EnVision multimode plate reader (Perkin Elmer, Waltham, Mass.) with an excitation wavelength of 337 nm (Laser) and a reading emission at both 520 and 495 nm. […] Abase uses a 4 parameter (4P) logistic fit based on the Levenberg-Marquardt algorithm.

GST-tagged truncated human mutant G2019S LRRK2, sequence (Q5S007 970-2527 G2019S): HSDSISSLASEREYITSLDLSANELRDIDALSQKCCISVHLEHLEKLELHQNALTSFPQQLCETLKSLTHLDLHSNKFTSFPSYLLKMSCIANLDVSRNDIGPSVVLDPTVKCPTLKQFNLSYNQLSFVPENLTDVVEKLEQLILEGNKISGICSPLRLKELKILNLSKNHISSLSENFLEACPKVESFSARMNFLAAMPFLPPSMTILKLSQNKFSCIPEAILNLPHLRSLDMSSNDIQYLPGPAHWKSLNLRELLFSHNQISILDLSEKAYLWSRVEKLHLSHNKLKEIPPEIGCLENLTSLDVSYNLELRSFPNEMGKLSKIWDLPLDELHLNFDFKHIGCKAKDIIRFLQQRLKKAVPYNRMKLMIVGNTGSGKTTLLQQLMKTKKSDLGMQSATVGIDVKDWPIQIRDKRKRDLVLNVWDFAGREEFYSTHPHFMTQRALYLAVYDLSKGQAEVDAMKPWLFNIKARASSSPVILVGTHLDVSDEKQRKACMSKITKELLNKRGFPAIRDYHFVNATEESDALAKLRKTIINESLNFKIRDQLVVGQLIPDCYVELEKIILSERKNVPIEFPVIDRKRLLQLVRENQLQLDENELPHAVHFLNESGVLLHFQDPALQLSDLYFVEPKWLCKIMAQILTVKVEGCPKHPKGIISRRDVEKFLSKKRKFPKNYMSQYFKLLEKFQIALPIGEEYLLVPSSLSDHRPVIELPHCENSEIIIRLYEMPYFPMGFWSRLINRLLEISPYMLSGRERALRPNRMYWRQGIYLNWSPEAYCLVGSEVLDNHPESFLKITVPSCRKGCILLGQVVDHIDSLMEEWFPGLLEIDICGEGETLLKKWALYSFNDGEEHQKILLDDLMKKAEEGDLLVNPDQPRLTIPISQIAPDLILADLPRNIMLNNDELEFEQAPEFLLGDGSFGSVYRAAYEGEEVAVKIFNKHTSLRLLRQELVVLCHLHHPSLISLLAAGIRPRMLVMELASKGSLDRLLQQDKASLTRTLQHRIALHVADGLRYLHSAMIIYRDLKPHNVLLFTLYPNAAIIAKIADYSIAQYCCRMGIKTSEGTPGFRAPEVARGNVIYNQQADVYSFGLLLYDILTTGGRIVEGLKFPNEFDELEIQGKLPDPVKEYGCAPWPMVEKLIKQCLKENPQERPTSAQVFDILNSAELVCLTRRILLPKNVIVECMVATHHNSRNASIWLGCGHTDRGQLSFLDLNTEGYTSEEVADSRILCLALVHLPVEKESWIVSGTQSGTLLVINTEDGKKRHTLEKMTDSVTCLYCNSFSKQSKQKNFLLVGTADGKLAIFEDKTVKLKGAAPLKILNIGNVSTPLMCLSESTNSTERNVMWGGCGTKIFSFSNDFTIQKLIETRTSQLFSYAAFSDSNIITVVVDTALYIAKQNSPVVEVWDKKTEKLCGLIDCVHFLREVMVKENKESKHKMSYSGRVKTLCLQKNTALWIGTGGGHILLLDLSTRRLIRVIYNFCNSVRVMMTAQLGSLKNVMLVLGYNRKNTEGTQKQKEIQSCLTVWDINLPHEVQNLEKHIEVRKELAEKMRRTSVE

Structure (SMILES)	IC50
CC(C)(O)[C@@H]1CCN(c2cc(-n3ncc4cnc(C5(C#N)CC56CC6)cc43)ccn2)C1 (single isomer, unassigned) [Example 6.6-2]	3.4 nM
CC(C)(O)C12CC(C1)N(c1cc(-n3ncc4cnc(C5(C#N)CC56CC6)cc43)ccn1)C2 (single isomer, unassigned) [Example 6.7-1, 1-(1-(2-(4-(2-hydroxypropan-2-yl)-2-azabicyclo[2.1.1]hexan-2-yl)pyridin-4-yl)-1H-pyrazolo[4,3-c]pyridin-6-yl)spiro[2.2]pentane-1-carbonitrile]	59 nM
CC(C)(O)C12CC(C1)N(c1cc(-n3ncc4cnc(C5(C#N)CC56CC6)cc43)ccn1)C2 (single isomer, unassigned) [Example 6.7-2, 1-(1-(2-(4-(2-hydroxypropan-2-yl)-2-azabicyclo[2.1.1]hexan-2-yl)pyridin-4-yl)-1H-pyrazolo[4,3-c]pyridin-6-yl)spiro[2.2]pentane-1-carbonitrile]	7.8 nM
Cc1cc(-n2ncc3ccc(C4(C#N)CC45CC5)cc32)cc(N2CC3(C(C)(C)O)CC2C3)n1 (single isomer, unassigned) [Example 7.3-1, (R or S)-1-(1-(2-(4-(2-hydroxypropan-2-yl)-2-azabicyclo[2.1.1]hexan-2-yl)-6-methylpyridin-4-yl)-1H-indazol-6-yl)spiro[2.2]pentane-1-carbonitrile]	54.2 nM
Cc1cc(-n2ncc3ccc(C4(C#N)CC45CC5)cc32)cc(N2CC3(C(C)(C)O)CC2C3)n1 (single isomer, unassigned) [Example 7.3-2, (R or S)-1-(1-(2-(4-(2-hydroxypropan-2-yl)-2-azabicyclo[2.1.1]hexan-2-yl)-6-methylpyridin-4-yl)-1H-indazol-6-yl)spiro[2.2]pentane-1-carbonitrile]	4.6 nM
CC(C)(O)C12CC(C1)N(c1cc(-n3ncc4ccc(C5(C#N)CC56CC6)cc43)cnn1)C2 (single isomer, unassigned) [Example 10.3-1, (R or S)-1-(1-(6-(4-(2-hydroxypropan-2-yl)-2-azabicyclo[2.1.1]hexan-2-yl)pyridazin-4-yl)-1H-indazol-6-yl)spiro[2.2]pentane-1-carbonitrile]	35.2 nM
CC(C)(O)C12CC(C1)N(c1cc(-n3ncc4ccc(C5(C#N)CC56CC6)cc43)cnn1)C2 (single isomer, unassigned) [Example 10.3-2, (R or S)-1-(1-(6-(4-(2-hydroxypropan-2-yl)-2-azabicyclo[2.1.1]hexan-2-yl)pyridazin-4-yl)-1H-indazol-6-yl)spiro[2.2]pentane-1-carbonitrile]	15.4 nM
CC(C)(O)[C@@H]1CCN(c2cc(-n3ncc4ccc(C5(C#N)CC56CC6)cc43)cnn2)C1 (single isomer, unassigned) [Example 10.4-1]	18.7 nM
CC(C)(O)[C@@H]1CCN(c2cc(-n3ncc4ccc(C5(C#N)CC56CC6)cc43)cnn2)C1 (single isomer, unassigned) [Example 10.4-2]	2.7 nM
Cc1nc(N2CC3(CN(CC(F)(F)F)C3)C2)cc(-n2ncc3cnc(C4(C#N)CC45CC5)cc32)n1 (single isomer, unassigned) [Example 12.1, (S or R)-1-(1-(2-methyl-6-(6-(2,2,2-trifluoroethyl)-2,6-diazaspiro[3.3]heptan-2-yl)pyrimidin-4-yl)-1H-pyrazolo[4,3-c]pyridin-6-yl)spiro[2.2]pentane-1-carbonitrile]	2.1 nM
N#C[C@@]1(c2ccc3cnn(-c4cc(N5CCOC(CO)C5)ncn4)c3c2)CC12CC2 (stereo in doubt) [Example 4.9-1, 1-(1-(6-(2-(hydroxymethyl)morpholino)pyrimidin-4-yl)-1H-indazol-6-yl)spiro[2.2]pentane-1-carbonitrile]	0.6 nM
CC(C)(O)[C@@H]1CCN(c2cc(-n3ncc4ccc([C@]5(C#N)CC56CC6)cc43)ncn2)C1 [Example 1.4-2, (S)-1-(1-(6-((R)-3-(2-hydroxypropan-2-yl)pyrrolidin-1-yl)pyrimidin-4-yl)-1H-indazol-6-yl)spiro[2.2]pentane-1-carbonitrile]	0.9 nM
N#CC1(c2ccc3cnn(-c4cc(N5CC6(CCOC6)C5)ncn4)c3c2)CC12CC2 (centres unmarked) [Example 1.5]	0.9 nM
CNc1nc(N2CC[C@@H](C(C)(C)O)C2)cc(-n2ncc3ccc(C4(C#N)CC45CC5)cc32)n1 (stereo partly drawn) [Example 2.6-1, 1-(1-(6-((R)-3-(2-hydroxypropan-2-yl)pyrrolidin-1-yl)-2-(methylamino)pyrimidin-4-yl)-1H-indazol-6-yl)spiro[1.2.2]pentane-1-carbonitrile]	0.8 nM
C[C@@H]1CN(c2cc(-n3ncc4ccc([C@]5(C#N)CC56CC6)cc43)ncn2)CCN1C1COC1 [Example 3.1-2]	0.6 nM
C[C@@H]1CN(c2cc(-n3ncc4ccc([C@]5(C#N)CC56CC6)cc43)ncn2)C[C@H](C)[C@]1(C)O [Example 3.2]	1.1 nM
COCc1nc(N2C[C@@H](C)[C@@](C)(O)[C@@H](C)C2)cc(-n2ncc3ccc([C@]4(C#N)CC45CC5)cc32)n1 [Example 3.3]	1 nM
COc1nc(N2C[C@@H](C)[C@@](C)(O)[C@@H](C)C2)cc(-n2ncc3ccc([C@]4(C#N)CC45CC5)cc32)n1 [Example 3.4]	1.5 nM
C[C@H]1CN(c2cc(-n3ncc4ccc([C@]5(C#N)CC56CC6)cc43)ncn2)CCN1C1CCOC1 (some centres unmarked) [Example 3.8-4]	0.6 nM
CC1(O)CC2(CN(c3cc(-n4ncc5ccc([C@@]6(C#N)CC67CC7)cc54)ncn3)C2)C1 [Example 3.9-1]	2.5 nM
CC1(O)CC2(CN(c3cc(-n4ncc5ccc([C@]6(C#N)CC67CC7)cc54)ncn3)C2)C1 [Example 3.9-2]	1.5 nM
C[C@@H]1CN(c2cc(-n3ncc4ccc([C@]5(C#N)CC56CC6)cc43)ncn2)C[C@H](C)N1C1COC1 [Example 4.1]	0.6 nM

Structure (SMILES)	IC50
CC1(O)CN(c2cc(-n3ncc4ccc([C@]5(C#N)CC56CC6)cc43)ncn2)C1 [Example 4.2]	1.3 nM
CC(C)(O)C1CN(c2cc(-n3ncc4ccc([C@]5(C#N)CC56CC6)cc43)ncn2)C1 [Example 4.4]	0.6 nM
COCc1nc(N2CC(OC)C2)cc(-n2ncc3ccc([C@]4(C#N)CC45CC5)cc32)n1 [Example 4.5]	2.6 nM
COCc1nc(N2C[C@@H](C)N(C3COC3)[C@@H](C)C2)cc(-n2ncc3ccc([C@]4(C#N)CC45CC5)cc32)n1 [Example 4.6]	0.9 nM
CS(=O)(=O)N1CCN(c2cc(-n3ncc4ccc([C@]5(C#N)CC56CC6)cc43)ncn2)CC1 [Example 4.7]	1.3 nM
C[C@H]1CN(c2cc(-n3ncc4ccc([C@]5(C#N)CC56CC6)cc43)ncn2)CCN1S(C)(=O)=O [Example 4.8]	1.2 nM
COCc1nc(N2C[C@@H](C)[C@@](C)(O)[C@@H](C)C2)cc(-n2ncc3ccc([C@]4(C#N)CC45CC5)cc32)n1 [Example 4.10]	0.6 nM
COCc1nc(N2CCN(C3COC3)[C@H](C)C2)cc(-n2ncc3ccc([C@]4(C#N)CC45CC5)cc32)n1 [Example 4.11-1]	1.3 nM
COCc1nc(N2CCN(C3COC3)[C@@H](C)C2)cc(-n2ncc3ccc([C@]4(C#N)CC45CC5)cc32)n1 [Example 4.11-2]	0.7 nM
CC(C)(O)[C@H]1CN(c2cc(-n3ncc4ccc([C@]5(C#N)CC56CC6)cc43)ncn2)C[C@H]1F [Example 4.12-1]	1.2 nM
CC(C)(O)[C@@H]1CN(c2cc(-n3ncc4ccc([C@]5(C#N)CC56CC6)cc43)ncn2)C[C@@H]1F [Example 4.12-2]	0.6 nM
CN1CCOC2(C1)CN(c1cc(-n3ncc4ccc([C@]5(C#N)CC56CC6)cc43)ncn1)C2 [Example 4.13]	0.6 nM
CS(=O)(=O)N1CCN(c2cc(-n3ncc4ccc([C@]5(C#N)CC56CC6)cc43)ccn2)CC1 [Example 4.14]	2.8 nM
Cc1nc(N2CC3(C(C)(C)O)CC2C3)cc(-n2ncc3c(F)cc(C4(C#N)CC45CC5)cc32)n1 (centres unmarked) [Example 4.16]	0.6 nM
Cc1nc(N2CCN3CCOC[C@@H]3C2)cc(-n2ncc3ccc([C@]4(C#N)CC45CC5)cc32)n1 [Example 4.17]	0.6 nM
N#C[C@@]1(c2ccc3cnn(-c4cc(C5CCN(C6COC6)CC5)ncn4)c3c2)CC12CC2 [Example 4.18]	18.7 nM
Cc1cc(-n2ncc3ccc([C@]4(C#N)CC45CC5)cc32)nc(N)n1 [Example 4.19]	0.6 nM
N#C[C@@]1(c2ccc3cnn(-c4cc(C5CC5)ncn4)c3c2)CC12CC2 [Example 4.21]	6.5 nM
Cc1cc(-n2ncc3ccc([C@]4(C#N)CC45CC5)cc32)nc(C2CC2)n1 [Example 4.23]	3.2 nM
COCc1nc(C)cc(-n2ncc3ccc([C@]4(C#N)CC45CC5)cc32)n1 [Example 4.24]	10.3 nM
CNc1nc(C)cc(-n2ncc3ccc([C@]4(C#N)CC45CC5)cc32)n1 [Example 4.25]	3.5 nM
CCc1cc(-n2ncc3ccc([C@]4(C#N)CC45CC5)cc32)nc(C)n1 [Example 4.26]	3.1 nM
